Test results published in PMC11508334, “In Vitro Evaluation of New 5-Nitroindazolin-3-one Derivatives as Promising Agents against Trypanosoma cruzi” (International Journal of Molecular Sciences, 2024).

Assays:
Dm28c trypomastigotes [1] = assay: Intracellular ROS generation (DCFH2-DA); format: cell-based, Trypanosoma cruzi; details: compound at IC50, 40 min
Procedure: ROS detection was performed using the 2′, 7′-dichlorodihydrofluorescein diacetate (DCFH2-DA) method. For Dm28c trypomastigotes, 96-well plates were seeded with 10 × 10^6 trypomastigotes/mL in RPMI medium without phenol red and supplemented with 5% SFBi. Cultures were incubated with a 20 μM DCFH2-DA solution for 15 min at 37 °C. Then, they were centrifuged at 6000 rpm and washed 2 times with phosphate-buffered saline at pH 7.4. The DCFH2-DA-loaded trypomastigotes were then transferred to a Nunc® fluorescence 96-well plate. […] The area under fluorescence increase over time curves were determined using Origin 8 software 9.2, with areas normalized to control. Results are the means ± SD of three independent experiments.

[2] = test system: trypomastigotes of T. cruzi; assay: Plasmatic membrane permeability assay (SYTOX Green) on trypomastigotes; format: cell-based, Trypanosoma cruzi; details: compound at IC50, 1 h
Procedure: Late growth-phase trypomastigotes of T. cruzi (3 × 10^6/well) were washed and incubated in the dark with 1 μM SYTOX Green probe (Molecular Probes) in HANKS′ balanced salts solution (HBSS; Sigma-Aldrich) supplemented with 10 mM D-glucose (HBSS + Glu). The test compound was added at IC50, and fluorescence was measured after 1 h of treatment. The maximum permeabilization was obtained with 0.5% Triton X-100. Fluorescence intensity was determined using Varioskan™ LUX multimode microplate reader (ThermoFisher Scientific, Waltham, MA, USA), with excitation and emission wavelengths of 485 and 520 nm, respectively. The following internal controls were used in the evaluation: (i) the background fluorescence of the compound at the respective wavelengths and (ii) the possible interference of DMSO. Samples were tested in triplicate.

[3] = test system: T. cruzi epimastigote stage (Dm28c strain); assay: Epimastigotes viability study (MTT); format: cell-based, Trypanosoma cruzi
Procedure: The trypanocidal activity was evaluated against the T. cruzi epimastigote stage (Dm28c strain). It was measured through the MTT assay using 0.22 mg/mL phenazine methosulfate (as an electron carrier). T. cruzi epimastigote from the author's collection (Programa de Farmacología Molecular y Clínica, Facultad de Medicina, Universidad de Chile, Santiago, Chile) were grown at 28 °C in liver infusion tryptase (LIT) medium, as reported earlier, but replacing blood with 4 μM hemin. […] fetal bovine serum (FBS) was added to a final concentration of 10% v/v. In this colorimetric assay for testing the trypanocidal activity, the compounds were dissolved in DMSO. They were added to 3 × 10^6 parasites/mL at 100 μM final concentrations in RPMI 1640 culture medium without phenol red for 24 h at 28 °C. The final concentration of DMSO was less than 0.1% v/v. […] The MTT assay, which was described previously, determined the viability of the epimastigotes.

[4] = test system: trypomastigote form of T. cruzi (Dm28c strain); assay: ESR spin trapping with DMPO in parasite media; format: cell-based, Trypanosoma cruzi; details: trypomastigotes, NADPH, aerobic conditions
Procedure: The free radical production capacity of the new complexes was assessed in the parasite by ESR using 5,5- dimethyl-1-pirroline-N-oxide (DMPO) for spin trapping. Each tested compound was dissolved in DMSO (spectroscopy grade) (ca. 1 mM) and the solution was added to a mixture containing the trypomastigote form of T. cruzi (Dm28c strain, final protein concentration 4–8 mg/mL) and DMPO (final concentration 250 mM). The mixture was transferred to a 50 μL capillary. ESR spectra were recorded in the X band (9.85 GHz) using a Bruker ECS 106 spectrometer with a rectangular cavity and 50 KHz field modulation. All the spectra were registered in the same scale after 15 scans.

[5] = test system: Dm28c trypomastigote of T. cruzi; assay: Mitochondrial membrane potential (TMRM incorporation); format: cell-based, Trypanosoma cruzi; details: trypomastigotes, compound at IC50, 3 h; compared to negative control
Procedure: Mitochondrial membrane potential (ψm) was determined by the incorporation of the fluorescent probe tetramethylrhodamine methyl ester (TMRM). […] Then, carbonylcyanide-m-chlorophenylhydrazone (CCCP, 10 µM) was added as a control and incubated at 37 °C in humidified air and 5% CO2 for 3 h. Parasites were washed with phosphate-buffered saline (pH 7.4), and suspensions were incubated with TMRM (50 nM) for 15 min. Fluorescence measurements determined the incorporation of the probe at an excitation wavelength of 550 nm and an emission of 590 nm. All the assays were performed in darkness.

[6] = test system: trypomastigote form of T. cruzi; assay: Analysis of ATP levels (CellTiter-Glo); format: cell-based, Trypanosoma cruzi; details: trypomastigotes; relative to negative control
Procedure: The CellTiter-Glo® Luminescent Cell Viability Assay (Promega, Fitchburg, WI, USA) was used to detect variations in ATP levels. After incubation, treated parasites were centrifuged (6000 rpm, 10 min, 4 °C) and treated according to the manufacturer’s instructions. Luminescence was determined using the Varioskan™ LUX multi-mode microplate reader (ThermoFisher Scientific). Results were expressed as a percentage relative to the negative control without treatment. Sodium azide (20 mM NaN3 for 3 h) was added as a positive control and benznidazole as a reference treatment. (1) %relative control=luminescence sample/luminescence control∗100

RAW 264.7 cells = assay: Cytotoxicity MTT assay on RAW 264.7 cells; format: cell-based; details: in vitro cytotoxicity, murine RAW 264.7 macrophages
Procedure: The compounds under study, dissolved in dimethylsulfoxide (DMSO), were added to the culture media at 10–200 μM. RAW 264.7 cells were cultured in 96-well plates (5 × 10^4 cells per well), and 100 μL of 0.5 mg/mL MTT was added to each well. The DMSO final concentration was less than 0.1% v/v. After incubation for 4 h at 37 °C, the generated water-insoluble formazan dye was dissolved by adding 100 μL of 10% w/v sodium dodecyl sulfate (SDS) in 0.01 M HCl. The plates were further incubated overnight at 37 °C; […] 0.5% of Triton X-100 was added as a positive control. The plates were further incubated overnight at 37 °C, and the optical density of the wells was determined using a microplate reader (Asys Expert Plus©, Asys Hitachi, Vienna, Austria) at 570 nm. Under these conditions, the optical density is directly proportional to the viable cell number in each well. All experiments were performed at least thrice and data were reported as means and their standard deviations from triplicate cultures. Results are reported as IC50 regarding the control (uninfected cells in culture medium)

[7] = Cyclic voltammetry, reduction of nitro group; format: physicochemical
Procedure: Cyclic Voltammetry (CV) was carried out using a Metrohm Autolab instrument model PGSTAT204, using dimethyl sulfoxide (DMSO) as the solvent (1 mM solutions), tetrabutylammonium perchlorate (0.1 M TBAP) as the supporting electrolyte, a hanging drop mercury electrode (HDME) as the working electrode, Ag/AgCl (3M KCl) as the reference electrode, and a graphite rod as the counter electrode. All measurements were performed after bubbling with nitrogen (N2) for 10 min.
Using Nicholson’s procedure, the Ipa/Ipc values (RNO2/RNO2^•−) were measured from each cyclic voltammogram with a scan rate between 0.1 and 2.5 V/s.

Dm28c trypomastigotes [8] = assay: Trypomastigote viability study (MTT); format: cell-based, Trypanosoma cruzi
Procedure: Vero cells (ATCC CCL-81) were infected with Dm28c trypomastigotes at a 1:3 (cell: parasite) ratio. T. cruzi trypomastigotes were initially obtained from primary cultures of peritoneal macrophage from chagasic mice. […] Vero cell cultures were then infected with trypomastigotes and incubated at 37 °C in humidified air and 5% CO2 for 5–7 days. After that time, the culture medium was collected and centrifuged at 500× g for 5 min. The trypomastigote-containing pellet was re-suspended in RPMI 1640 supplemented with inactivated FBS and penicillin–streptomycin at a final 1 × 10^7 parasites/mL density. Trypomastigote viability assays were performed using the MTT reduction method as described previously. Then, 1 × 10^7 parasites/mL was incubated in RPMI 1640 with inactivated FBS at 37 °C for 24 h with or without the studied compounds.

IC50 ([3]; T. cruzi Dm28c epimastigotes, 24 h, MTT): 1.1 ± 0.3 µM
−EpaIII ([7]; anodic peak potential of couple IIIc/IIIa, given with inverted sign, vs. Ag/AgCl electrode in DMSO): 1.32 V
−EpcIII ([7]; cathodic peak potential of couple IIIc/IIIa, given with inverted sign, vs. Ag/AgCl electrode in DMSO): 1.36 V
Ipa/Ipc ([7]; current ratio RNO2/RNO2•−, couple IIIc/IIIa, DMSO): 0.62
−E1/2 ([7]; half-wave potential of couple IIIc/IIIa, given with inverted sign, vs. Ag/AgCl electrode in DMSO): 1.34 V
Compound: O=c1c2cc([N+](=O)[O-])ccc2[nH]n1Cc1ccccn1 [Compound 5a, 5-nitro-2-picolyl-indazolin-3-one]
intracellular ROS (DCF fluorescence intensity) (Dm28c trypomastigotes [1]): most significant increase in fluorescence intensity
alteration of plasma membrane permeability (SYTOX Green incorporation) [2]: alter plasma membrane permeability
SI Epimastigote ([3]; Selectivity Index IC50 macrophages RAW 264.7/IC50 epimastigotes Dm28c): 62.6
radical species detected by DMPO spin trapping [4]: generation of the hydroxyl radical
effect on mitochondrial membrane potential (ψm) [5]: statistically significant impact
ATP levels [6]: significantly reduced ATP levels
IC50 (RAW 264.7 cells): 68.9 ± 0.7 µM
SI Trypomastigote (Dm28c trypomastigotes [8]; Selectivity Index IC50 macrophages RAW 264.7/IC50 trypomastigotes Dm28c): 12.8
IC50 (Dm28c trypomastigotes [8]; T. cruzi Dm28c trypomastigotes, 24 h, MTT): 5.4 ± 0.7 µM
